Measurements from PMC10374545, “A small molecule inhibitor of PTP1B and PTPN2 enhances T cell anti-tumor immunity” (Nature Communications, 2023).
Where “and” joins values, the source holds several entries; their conditions need not be identical. Identical values can stand only once.

How the values were obtained:
[1] = tested on: AT3-OVA mammary tumors; experiment: Tumor-infiltrating lymphocytes in AT3-OVA tumors (flow cytometry); type: in vivo, mouse; parameters: GRZMB, single mice / GRZMB, individual mice: unit not given here
Procedure: Single-cell suspensions from spleens and lymph nodes were obtained as described previously. For the detection of intracellular cytokines and granzyme B, T cells were fixed and permeabilized with the BD Cytofix/Cytoperm kit according to the manufacturer’s instructions. Briefly, T cells were first surface stained with fluorophore-conjugated antibodies and then fixed followed by permeabilization on ice for 20 min. Fixed and permeabilized cells were stained for IFN-γ, TNF, and granzyme B for 45 min at room temperature. For the detection of intracellular FoxP3 the Foxp3/Transcription Factor Staining Buffer Set (eBioscience) was used according to the manufacturer’s instructions. Briefly, cells were fixed and permeabilized for 1 h on ice followed by intracellular staining at room temperature for 45 min. For the detection of serum cytokines, the BD CBA Mouse Inflammation Kit™ was used according to the manufacturers’ instructions.
Cells (1 × 10^6/10 µl) were stained with the specified antibodies on ice for 30 min in D-PBS supplemented with 2% FBS in the dark and analyzed using a Fortessa or Symphony A3 (BD Biosciences). Data was acquired using BD FACS DIVA Software v8.0.1 and analyzed using FlowJo10 (Tree Star Inc.) software. Lymphocytes were gated for eYFP^+ cells to discriminate between PTPN2 sufficient and PTPN2 negative cells after poly(I:C)-induced PTPN2-deletion in Mx1-Cre;Ptpn2^fl/fl mice. For cell quantification, known numbers of Flow-Count Fluorospheres (Beckman Coulter) were added to samples before analysis. Dead cells were excluded with propidium iodide (1 μg/ml; Sigma-Aldrich). Paraformaldehyde fixed dead cells were excluded with the LIVE/DEAD™ Fixable Near-IR Dead Cell Stain Kit (Thermo Fisher Scientific).
Tumor-bearing mice were sacrificed and tumors were excised and digested at 37 °C for 30 min using a cocktail of 1 mg/ml collagenase type IV (Worthington Biochemicals) and 0.02 mg/ml DNase I (Sigma-Aldrich) in DMEM supplemented with 2% (v/v) FBS. Cells were passed through a 70 μm cell strainer (BD Biosciences) twice and processed for flow cytometry. For assessing T cell activation, cells were surface stained with fluorophore-conjugated antibodies to CD62L, CD44, PD-1, and TIM-3. For the assessment of NK cells, B cells, myeloid-derived suppressor cells (MDSCs), dendritic cells (DCs), and tumor-associated macrophages, cells were surface stained with fluorophore-conjugated antibodies to NK1.1, TCRβ, CD19, CD11b, CD11c, F4/80, Ly6C and Ly6G. For the detection of intracellular cytokines TNF and IFNγ, T cells were stimulated with PMA (20 ng/ml; Sigma-Aldrich) and ionomycin (1 μg/ml; Sigma-Aldrich) in the presence of GolgiPlug™ and GolgiStop™ (BD Biosciences) for 4 h at 37 °C in complete T cell medium. For the intracellular detection of granzyme B, cells were processed untreated without the addition of BD GolgiPlug™ and BD GolgiStop™.

[2] = tested on: NK cells; experiment: NK cell proliferation (CFSE dilution); type: cell-based, mouse; settings: IL-15, 96 h; 0.1 or 1 (µM in figure, µg/ml in legend)
Procedure: (§1) proliferation in vitro. a-b) NK cells from C57BL/6 male mice (n=3 per group) were expanded […]
(§2) µg/ml) or vehicle (1% v/v DMSO) in the absence of IL-15. a) NK cells were re-stimulated for 15 min with the indicated amounts of IL-15 and Y694 phosphorylated STAT-5 (p-STAT-5) mean fluorescence intensities (MFIs) determined by flow cytometry. b) Alternatively, NK cells were stained with carboxyfluorescein succinimidyl ester (CFSE, Invitrogen) and then re-stimulated with the indicated amounts of IL-15 for 96 h and NK cell proliferation (CFSE dilution) monitored by flow cytometry. c-d) NK cells from C57BL/6 male mice (n=3 per group) were expanded ex vivo in the presence of IL-15 and then pre-treated with CMP-182 (0.1 or 1 µg/ml) or vehicle in the absence of IL-15. NK cells were re-stimulated with either IL-12 (10 ng/ml) or IL-18 (100 ng/ml) or with α-NK1.1 or α-Ly49H for 4 h. NK cells were maintained in 10 ng/ml IL-15 throughout the 4 h incubation time. Percentages of c) IFN-γ+ and d) CD107A+ NK cells were determined by flow cytometry. In (a-d) results shown are means ± SEM and are representative of at least two independent experiments.

[3] = tested on: NK cells; experiment: NK cell activation (IFN-γ+, CD107A+) by cytokines or α-NK1.1/α-Ly49H; type: cell-based, mouse; settings: cytokines or crosslinking NK1.1, Ly49H
Procedure: as §1, §2

[4] = tested on: p-STAT-1 and CD3 in AT3-OVA tumors; experiment: Immunohistochemistry for p-STAT-1 (Y701) and CD3 in AT3-OVA tumors; type: in vivo, mouse; settings: 10 mg/kg i.v.
Procedure: For the immunohistochemistry analysis of mammary tumor samples, samples were dissected and fixed in 10% formalin. After fixation, the tissues were embedded in paraffin and sectioned onto microscopic glass slides at 4 μm thickness per section. After deparaffinization and rehydration, the slides were subjected to antigen retrieval in Tris/EDTA buffer (pH 8.0) at 120 °C for 10 min and then cooled down to room temperature. The slides were blocked with 5% (v/v) normal goat serum (NGS) containing 0.1% (v/v) TritonX-100 in PBS for 1 h at room temperature and then incubated with primary antibody p-STAT-1 (Tyr701) (1:500; Cell Signaling Technology), or CD3ε (1:1000; Dako) at room temperature for 1 h. Slides were then washed with PBS containing 0.05% (w/v) Tween-20 and visualized using a rabbit IgG VECTORSTAIN ABC Elite and DAB (3,3′‐diaminobenzidine) Peroxidase Substrate Kit (Vector Laboratories, UK) and counterstained with haematoxylin. Slides were imaged on an Olympus CX43 microscope (Olympus, Tokyo, Japan).

[5] = C57BL/6, CMP-182 10 mg, n=8, Figure 5C
[6] = C57BL/6, CMP-182 10 mg, n=8, Figure 5D, in % (unit assumed)
[7] = C57BL/6, CMP-182 10 mg, n=8, Figure 5E
[8] = tumor-infiltrating CD8+ T cells, 10 mg/kg i.v., Fig. 3D raw data, listed as CMP-182, 10 mg/kg

CC(C)(O)CCOc1ccc2cc(O)c(N3CC(=O)NS3(=O)=O)c(F)c2c1 [Compound 182, 5-(1-Fluoro-3-hydroxy-7-(3-hydroxy-3-methylbutoxy)naphthalen-2-yl)−1,2,5-thiadiazolidin-3-one 1,1-dioxide]
TILs in AT3-OVA tumors ([1]; 10 mg/kg i.v.): increased TILs
accumulation of NK cells and B cells in AT3-OVA tumors ([1]; 10 mg/kg i.v.): increased the accumulation
accumulation of Tregs and MDSCs in AT3-OVA tumors ([1]; 10 mg/kg i.v.): promoted the accumulation
MDSCs, individual mice ([1]; C57BL/6, CMP-182 10 mg, n=7, Figure 5E): 48747.9 and 7096.22 and 17089.1 and 45092.3 and 47664.4 and 17646.1 and 31607.3
CD4 EM, individual mice [1, 5]: 134557 and 47922.8 and 133424 and 44428.9 and 44587.5 and 55436.2 and 44822.8 and 60817.2
CD8 EM, individual mice [1, 5]: 845401 and 186403 and 749030 and 169324 and 169003 and 192622 and 192657 and 178436
GRZMB, individual mice ([1]; C57BL/6, CMP-182 10 mg, n=8, Figure 5D): 25.6 and 28.7 and 25.8 and 29.2 and 51.4 and 33.2 and 36 and 28.4
IFNg TNF, individual mice [1, 6]: 24.8 and 30.6 and 32 and 36.2 and 36.6 and 36.4 and 24 and 30.7
PD-1 TIM-3, individual mice [1, 6]: 77.9 and 62.8 and 78.4 and 65.6 and 64.1 and 65.4 and 72.7 and 54.7
B cells, individual mice [1, 7]: 170944 and 179918 and 255526 and 193357 and 175857 and 145133 and 135399 and 202633
NK cells, individual mice [1, 7]: 58558.9 and 29752.3 and 40599.7 and 35764.2 and 59533.6 and 52754.4 and 30362.6 and 33110.9
Tregs, individual mice [1, 7]: 74115.4 and 20349.3 and 83872.7 and 21555.9 and 26849.8 and 29117.6 and 19831.6 and 35834.4
CD4 CM TILS (median) ([1]; Figure 3B, column B, n=8): 11958, n=8
CD4 EM TILS (median) ([1]; Figure 3B, column B, n=8): 57270, n=8
CD8 CM TILS (median) ([1]; Figure 3B, column B, n=8): 16228, n=8
CD8 EM TILS (median) ([1]; Figure 3B, column B, n=8): 275442, n=8
B cells TILS (median) ([1]; Figure 3C, column B, n=8): 364105, n=8
MDSCs TILS (median) ([1]; Figure 3C, column B, n=8): 8604, n=8
Nk cells TILS (median) ([1]; Figure 3C, column B, n=8): 52917, n=8
Tregs TILS (median) ([1]; Figure 3C, column B, n=8): 35282, n=8
GRZB TILS (median) ([1]; Figure 3D, column B, n=8): 35.20, n=8
IFNg TNF TILS (median) ([1]; Figure 3D, column B, n=8): 31.60, n=8
PD-1 Lag-3 TILS (median) ([1]; Figure 3D, column B, n=8): 35.10, n=8
PD-1 TIM-3 TILS (median) ([1]; Figure 3D, column B, n=8): 50.75, n=8
GRZMB, single mice [1, 8]: 38.7 and 39 and 35.1 and 25.9 and 27.7 and 35.3 and 28.6 and 36.2
PD-1 LAG-3, single mice [1, 8]: 39.6 and 36.2 and 34 and 27 and 25.2 and 33.5 and 41.6
PD-1 TIM-3, single mice ([1]; tumor-infiltrating CD8+ T cells, 10 mg/kg i.v., Fig. 3D raw data, listed as CMP-182, 10 mg/kg, in % (unit assumed)): 64.6 and 50.1 and 56.3 and 51.4 and 49.7 and 42.6 and 48.5 and 63
NK cell proliferation [2]: did not enhance
NK cell activation (IFNγ or CD107A expressing cells) [3]: nor did it affect
p-STAT-1 signaling and T cell infiltrates in AT3-OVA tumors of Lck-Cre;Ptpn2fl/fl mice [4]: did not further increase
p-STAT-1 staining and abundance of CD3ε+ T cells in AT3-OVA tumors ([4]; C57BL/6 mice): increased
